The assay concerns the target T1, Syk (Homo sapiens, UniProt P43405).
T1 construct: purchased BPS Bioscience, CA, USA
Briefly: Syk enzyme assay (SYK flash plate assay / Caliper mobility shift). The assay is classed as biochemical. As for the experimental part: The kinase assay is performed either as 384-well Flashplate assay (for e.g. Topcount measurement) or as 384-well Image-Flashplate assay (for LEADseeker measurement).
2.5 nM SYK, 400 nM Biotin-Aha-Aha-KEDPDYEWPSAKK
and 10 μM ATP (spiked with 0.3 μCi 33P-ATP/well) are incubated in a total volume of 50 μl (60 mM Hepes, 10 mM MgCl2, 1.2 mM Dithiothreitol, 0.02% Brij35, 0.1% BSA, pH 7.5) with or without test compound for 1 hours at 30° C. The reaction is stopped with 25 μl 200 mM EDTA. After 30 Min at 30° C. the liquid is removed and each well washed thrice with 100 μl 0.9% sodium chloride solution. Non-specific reaction is determined in presence of 0.1 μM Staurosporine. Radioactivity is measured with Topcount (when using Flashplates) or with LEADseeker (when using Image-Flashplates) respectively. Results (e.g. IC50-values) are calculated with program tools provided by the IT-department (e.g. Symyx Assay Explorer, Genedata Screener). Enzymatic Assays Using the Caliper LifeSciences Technology
The assays described here are performed on the Caliper Life Sciences LC3000 system This technology provides data on enzyme activity via measurement of the relative amounts of phosphorylated or unphosphorylated fluorescently labelled substrate peptide at the end of an enzymatic reaction. These different states of peptide are resolved by applying a potential difference across the sample. The presence of the charged phosphate group on the product (as opposed to the substrate) causes a different peptide mobility between the two peptides. This is visualized by excitation of the fluorescent label on the substrate and product peptides and represented as peaks within the analysis software.
In order to measure inhibitor activity of kinase inhibitors on this technology, a TTP Mosquito liquid handling instrument is used to place 0.25 ul of the appropriate concentration of inhibitor in 100% DMSO (for a dose response curve calculation) into each well of a 384-well plate. To this reaction components are added to a final volume of 25 ul. The table below indicates the sequences and concentrations for the assays described in this report. Standard components are 1 mM DTT (Sigma, D0632), 1 mM MgCl2 (Sigma, M1028), 100 mM HEPES pH 7.5 (Calbiochem, 391338), 0.015% Brij-35 (Sigma, B4184).
The reaction is incubated for 90 min at 25 C, and then stopped by the addition of 70 ul of Stop buffer (100 mM HEPES pH 7.5, 0.015% Brij-35, 10 mM EDTA (Sigma, E7889)).
The plate is read on a Caliper LC 3000 in an Off-Chip mobility shift assay format, on a 12-sipper chip. Unphosphorylated substrate and phosphorylated product peptide resolve as separate peaks allowing direct measurement of percentage of conversion of substrate to product. The percent conversion can be plotted against concentration of inhibitor to produce a sigmoidal dose response curve, from which an IC50 can be calculated using GeneData Condoseo or a similar product.

Where only a bound is given, the exact number is not on record here.

Usually IC50 stands for the midpoint of a concentration-inhibition curve. Consider `COc1cc(-c2cc3nccc(-c4ccc(CNC(C)=O)cc4)c3o2)cc(OC)c1OC` [Compound A54, N-{4-[2-(3,4,5-Trimethoxy-phenyl)-furo[3,2-b]pyridin-7-yl]-benzyl}-acetamide], for which the half-inhibitory concentration (IC50) lay within 0.3 to 3 µM.
On to `Fc1cc(F)cc(-c2cc3nccc(-c4cc(F)cc(F)c4)c3o2)c1` [Compound B1, 2,7-Bis-(3,5-difluoro-phenyl)-furo[3,2-b]pyridine], for which the IC50 was in the range of 3 to 50 µM.
For `Fc1ccc(-c2cc3nccc(-c4ccc(F)cc4)c3o2)cc1` [Compound B6, 2,7-Bis-(4-fluoro-phenyl)-furo[3,2-b]pyridine], the IC50 is 3 to 50 µM.
The figure for `COc1cc(-c2cc3nccc(NCc4cccnc4N(C)S(C)(=O)=O)c3o2)cc(OC)c1OC` [Compound B7, N-Methyl-N-(3-{[2-(3,4,5-trimethoxy-phenyl)-furo[3,2-b]pyridin-7-ylamino]-methyl}-pyridin-2-yl)-methanesulfonamide] is 3 to 50 µM; for `COc1cc(-c2cc3nccc(NCc4cccc(S(C)(=O)=O)c4)c3o2)cc(OC)c1OC` [Compound B9] it is 3 to 50 µM.
Regarding `O=C(Nc1ccc(Oc2ccnc3cc(-c4ccccc4)oc23)cc1)c1cccn(-c2ccc(F)cc2)c1=O` [Compound B13, 1-(4-Fluoro-phenyl)-2-oxo-1,2-dihydro-pyridine-3-carboxylic acid [4-(2-phenyl-furo[3,2-b]pyridin-7-yloxy)-phenyl]-amide], the IC50 lay in the range of 0.3 to 3 µM.
As to `CCOc1ccn(-c2ccc(F)cc2)c(=O)c1C(=O)Nc1ccc(Oc2ccnc3cc(-c4ccccc4)oc23)cc1` [Compound B14, 4-Ethoxy-1-(4-fluoro-phenyl)-2-oxo-1,2-dihydro-pyridine-3-carboxylic acid [4-(2-phenyl-furo[3,2-b]pyridin-7-yloxy)-phenyl]-amide], the IC50 was 0.3 to 3 µM.
Take `CN(c1ncccc1CNc1ccnc2cc(-c3ccccc3)oc12)S(C)(=O)=O` [Compound B20, N-Methyl-N-{3-[(2-phenyl-furo[3,2-b]pyridin-7-ylamino)-methyl]-pyridin-2-yl}-methanesulfonamide]: the IC50 lay within 3 to 50 µM.
On to `COc1cc(-c2cc3nccc(Nc4ccc5c(n4)NC(=O)C(C)(C)O5)c3o2)cc(OC)c1OC` [Compound B29, 2,2-Dimethyl-6-[2-(3,4,5-trimethoxy-phenyl)-furo[3,2-b]pyridin-7-ylamino]-4H-pyrido[3,2-b][1,4]oxazin-3-one], for which the IC50 lay within 0.3 to 3 µM.
Regarding `COc1c(C)cc(-c2cc3nccc(-c4cc(C)c(OC)c(C)c4)c3o2)cc1C` [Compound B32, 2,7-Bis-(4-methoxy-3,5-dimethyl-phenyl)-furo[3,2-b]pyridine], the IC50 fell in the range of 3 to 50 µM.
Take `Cc1cccc(-c2cc3nccc(-c4cccc(C)c4)c3o2)c1` [Compound B34, 2,7-Di-m-tolyl-furo[3,2-b]pyridine]: the IC50 is 3 to 50 µM.
The figure for `COc1ccc(-c2cc3nccc(-c4ccc(OC)cc4)c3o2)cc1` [Compound B35, 2,7-Bis-(4-methoxy-phenyl)-furo[3,2-b]pyridine] is 3 to 50 µM.
In the case of `c1cc(-c2ccc3c(c2)OCCO3)c2oc(-c3ccc4c(c3)OCCO4)cc2n1` [Compound B37, 2,7-Bis-(2,3-dihydro-benzo[1,4]dioxin-6-yl)-furo[3,2-b]pyridine], the IC50 lay within 3 to 50 µM.
In the case of `COc1ccc(-c2cc3nccc(-c4ccc(OC)c(OC)c4)c3o2)cc1OC` [Compound B39, 2,7-Bis-(3,4-dimethoxy-phenyl)-furo[3,2-b]pyridine], the IC50 lay in the range of 0.3 to 3 µM.
In the case of `COc1cccc(-c2cc3nccc(-c4cccc(OC)c4OC)c3o2)c1OC` [Compound B42, 2,7-Bis-(2,3-dimethoxy-phenyl)-furo[3,2-b]pyridine], the IC50 fell in the range of 3 to 50 µM.
The result for `CC(C)(C#N)c1ccc(-c2cc3nccc(-c4ccc(C(C)(C)C#N)cc4)c3o2)cc1` [Compound B55, 2-(4-{2-[4-(Cyano-dimethyl-methyl)-phenyl]-furo[3,2-b]pyridin-7-yl}-phenyl)-2-methyl-propionitrile] reads 0.3 to 3 µM; that for `C=C(C)c1ccc(-c2cc3nccc(Nc4ccc5[nH]ccc5c4C)c3o2)cc1` [Compound B62, [2-(4-Isopropenyl-phenyl)-furo[3,2-b]pyridin-7-yl]-(4-methyl-1H-indol-5-yl)-amine], 3 to 50 µM; that for `COc1cc(-c2cc3nccc(-c4cc(C)c(OC)c(C)c4)c3o2)cc(OC)c1OC` [Compound B73, 7-(4-Methoxy-3,5-dimethylphenyl)-2-(3,4,5-trimethoxyphenyl)furo[3,2-b]pyridine], 0.3 to 3 µM.
Turning to `COc1cc(-c2cc3nccc(-c4ccc(C(=O)NC5CCCC5)cc4)c3o2)cc(OC)c1OC` [Compound B75, N-Cyclopentyl-4-(2-(3,4,5-trimethoxyphenyl)furo[3,2-b]pyridin-7-yl)benzamide], the IC50 was 3 to 50 µM.
As to `Oc1cccc(-c2cc3nccc(-c4ccccc4)c3o2)c1` [Compound C1], the IC50 lay within 0.3 to 3 µM.
For `COc1cc(-c2cc3nccc(-c4cccc(C(=O)NCCO)c4)c3o2)cc(OC)c1OC` [Compound C5], the IC50 is less than 0.3 µM.
As to `CC(C)Cn1cc(-c2cc3nccc(-c4cnn(C)c4)c3o2)cn1` [Compound C6], the IC50 lay in the range of 0.3 to 3 µM.
Take `COc1cc(-c2cc3nccc(-c4cccc(C(=O)NCC5CCCN5C(=O)OC(C)(C)C)c4)c3o2)cc(OC)c1OC` (stereo not drawn) [Compound C7]: the IC50 lay within 0.3 to 3 µM.
The result for `CNC(=O)COc1cccc(-c2ccnc3cc(-c4cc(OC)c(OC)c(OC)c4)oc23)c1` [Compound C8] reads less than 0.3 µM; that for `Cc1cc(-c2cc3nccc(-c4cnn(C)c4)c3o2)cc(C(C)(C)C)c1` [Compound C9], 0.3 to 3 µM; that for `COc1cc(-c2cc3nccc(-c4cccc(C(=O)NCc5cc[nH]n5)c4)c3o2)cc(OC)c1OC` [Compound C10], less than 0.3 µM.
`COc1cc(-c2cc3nccc(-c4cccnc4)c3o2)cc(OC)c1OC` [Compound C13]: the IC50 was less than 0.3 µM.
For `COc1cc(-c2cc3nccc(-c4ccccc4C(C)C)c3o2)cc(OC)c1OC` [Compound C14], the IC50 is 0.3 to 3 µM.
For the compound `COc1cccc(-c2cc3nccc(-c4ccccc4)c3o2)c1` [Compound C15], the half-inhibitory concentration (IC50) was in the range of 0.3 to 3 µM.
`COc1cc(-c2cc3nccc(-c4cnn(C)c4)c3o2)ccn1` [Compound C16]: the IC50 was in the range of 0.3 to 3 µM.
`Cn1cc(-c2ccnc3cc(-c4cccc(OCc5ccccc5)c4)oc23)cn1` [Compound C20]: the IC50 was 3 to 50 µM.
As to `Cc1noc(C)c1-c1cc2nccc(-c3cnn(C)c3)c2o1` [Compound C22], the IC50 lay within 0.3 to 3 µM.
As for `COc1cc(-c2cc3nccc(-c4cnc(F)cc4C)c3o2)cc(OC)c1OC` [Compound C23], the IC50 was less than 0.3 µM.
The figure for `c1ccc(-c2ccnc3cc(-c4ccc(N5CCOCC5)nc4)oc23)cc1` [Compound C25] is 0.3 to 3 µM.
In the case of `COc1cc(-c2cc3nccc(-c4ccc(OC5CCOCC5)nc4)c3o2)cc(OC)c1OC` [Compound C28], the half-maximal inhibitory concentration (IC50) was 0.3 to 3 µM.
As to `Cn1cc(-c2ccnc3cc(-c4ccc(OC(F)(F)F)cc4)oc23)cn1` [Compound C32], the half-maximal inhibitory concentration (IC50) lay within 0.3 to 3 µM.
Regarding `Cn1cc(-c2ccnc3cc(-c4ccc(OCCN5CCCCC5)cc4)oc23)cn1` [Compound C36], the IC50 fell in the range of 0.3 to 3 µM.
On to `Cn1cc(-c2ccnc3cc(-c4ccc(OCC(O)CN5CCCCC5)cc4)oc23)cn1` (stereo not drawn) [Compound C38], for which the IC50 lay within 0.3 to 3 µM.
For `c1cncc(-c2ccnc3cc(-c4ccc(N5CCOCC5)nc4)oc23)c1` [Compound C39], the IC50 is 3 to 50 µM.

(Values after US9006440B2, “Furopyridine derivatives” (Merck Patent GmbH, priority 2010, dated 2015).)
